#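 Grown in 96-well plates, cells were treated for 48 hours with each compound at five concentrations. Insufficient inhibition: endpoint recorded as highest concentration tested. TGI: concentration producing complete growth inhibition.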
# How the values were obtained:
# Assay in all cases: NCI tumour cell line growth inhibition, 48 h
# PC-3 prostate = tested on: PC-3 prostate
# NCI-H522 lung = tested on: NCI-H522 lung
# SF-295 CNS = tested on: SF-295 CNS
# MCF7 breast = tested on: MCF7 breast
# TK-10 renal = tested on: TK-10 renal
# U251 CNS = tested on: U251 CNS
# KM12 colon = tested on: KM12 colon
# SK-MEL-28 melanoma = tested on: SK-MEL-28 melanoma
# SR leukemia = tested on: SR leukemia
# NCI/ADR-RES ovarian = tested on: NCI/ADR-RES ovarian
# M14 melanoma = tested on: M14 melanoma
# SNB-75 CNS = tested on: SNB-75 CNS
# MOLT-4 leukemia = tested on: MOLT-4 leukemia
# OVCAR-5 ovarian = tested on: OVCAR-5 ovarian
# A549 NSCLC = tested on: A549 NSCLC
# SN12C renal = tested on: SN12C renal
# BT-549 breast = tested on: BT-549 breast
# MDA-N = tested on: MDA-N
# MALME-3M melanoma = tested on: MALME-3M melanoma
# T-47D breast = tested on: T-47D breast
# SK-OV-3 ovarian = tested on: SK-OV-3 ovarian
# NCI-H226 lung = tested on: NCI-H226 lung
# MDA-MB-435 = tested on: MDA-MB-435
# COLO 205 colon = tested on: COLO 205 colon
# SK-MEL-5 melanoma = tested on: SK-MEL-5 melanoma
# UACC-62 melanoma = tested on: UACC-62 melanoma
# SK-MEL-2 melanoma = tested on: SK-MEL-2 melanoma
# CAKI-1 renal = tested on: CAKI-1 renal
# ACHN renal = tested on: ACHN renal
# DU-145 prostate = tested on: DU-145 prostate
# OVCAR-3 ovarian = tested on: OVCAR-3 ovarian
# NCI-H460 lung = tested on: NCI-H460 lung
# MDA-MB-231 breast = tested on: MDA-MB-231 breast
# UO-31 renal = tested on: UO-31 renal
# HS 578T breast = tested on: HS 578T breast
# SW-620 colon = tested on: SW-620 colon
# RPMI-8226 leukemia = tested on: RPMI-8226 leukemia
# SF-539 CNS = tested on: SF-539 CNS
# K-562 leukemia = tested on: K-562 leukemia
# HCT-15 colon = tested on: HCT-15 colon
# HT29 colon = tested on: HT29 colon
# NCI-H23 lung = tested on: NCI-H23 lung
# IGROV1 ovarian = tested on: IGROV1 ovarian
# 786-0 renal = tested on: 786-0 renal
# SNB-19 CNS = tested on: SNB-19 CNS
# HOP-62 NSCLC = tested on: HOP-62 NSCLC
# OVCAR-8 ovarian = tested on: OVCAR-8 ovarian
# EKVX NSCLC = tested on: EKVX NSCLC
# HCC-2998 colon = tested on: HCC-2998 colon
# SF-268 CNS = tested on: SF-268 CNS
# RXF 393 renal = tested on: RXF 393 renal
# HOP-92 NSCLC = tested on: HOP-92 NSCLC
# OVCAR-4 ovarian = tested on: OVCAR-4 ovarian
# UACC-257 melanoma = tested on: UACC-257 melanoma
# HCT-116 colon = tested on: HCT-116 colon
# CCRF-CEM leukemia = tested on: CCRF-CEM leukemia
# LOX IMVI melanoma = tested on: LOX IMVI melanoma
# HL-60(TB) leukemia = tested on: HL-60(TB) leukemia
# A498 renal = tested on: A498 renal
structure (smiles),measurement,setting,value
CC(NC(=O)C(CC(=O)OCc1ccccc1)NC(=O)OCc1ccccc1)c1ccccc1 (stereo not drawn),TGI,PC-3 prostate,> 100 µM
same,TGI,NCI-H522 lung,> 100 µM
same,TGI,SF-295 CNS,> 100 µM
same,TGI,MCF7 breast,> 100 µM
same,TGI,TK-10 renal,> 100 µM
same,TGI,U251 CNS,> 100 µM
same,TGI,KM12 colon,> 100 µM
same,TGI,SK-MEL-28 melanoma,> 100 µM
same,TGI,SR leukemia,> 100 µM
same,TGI,NCI/ADR-RES ovarian,> 100 µM
same,TGI,M14 melanoma,> 100 µM
same,TGI,SNB-75 CNS,> 100 µM
same,TGI,MOLT-4 leukemia,> 100 µM
same,TGI,OVCAR-5 ovarian,> 100 µM
same,TGI,A549 NSCLC,> 100 µM
same,TGI,SN12C renal,> 100 µM
same,TGI,BT-549 breast,> 100 µM
same,TGI,MDA-N,> 100 µM
same,TGI,MALME-3M melanoma,> 100 µM
same,TGI,T-47D breast,> 100 µM
same,TGI,SK-OV-3 ovarian,> 100 µM
same,TGI,NCI-H226 lung,> 100 µM
same,TGI,MDA-MB-435,> 100 µM
same,TGI,COLO 205 colon,> 100 µM
same,TGI,SK-MEL-5 melanoma,> 100 µM
same,TGI,UACC-62 melanoma,> 100 µM
same,TGI,SK-MEL-2 melanoma,> 100 µM
same,TGI,CAKI-1 renal,> 100 µM
same,TGI,ACHN renal,> 100 µM
same,TGI,DU-145 prostate,> 100 µM
same,TGI,OVCAR-3 ovarian,> 100 µM
same,TGI,NCI-H460 lung,> 100 µM
same,TGI,MDA-MB-231 breast,> 100 µM
same,TGI,UO-31 renal,> 100 µM
same,TGI,HS 578T breast,> 100 µM
same,TGI,SW-620 colon,> 100 µM
same,TGI,RPMI-8226 leukemia,> 100 µM
same,TGI,SF-539 CNS,> 100 µM
same,TGI,K-562 leukemia,> 100 µM
same,TGI,HCT-15 colon,> 100 µM
same,TGI,HT29 colon,> 100 µM
same,TGI,NCI-H23 lung,> 100 µM
same,TGI,IGROV1 ovarian,> 100 µM
same,TGI,786-0 renal,> 100 µM
same,TGI,SNB-19 CNS,> 100 µM
same,TGI,HOP-62 NSCLC,> 100 µM
same,TGI,OVCAR-8 ovarian,> 100 µM
same,TGI,EKVX NSCLC,> 100 µM
same,TGI,HCC-2998 colon,> 100 µM
same,TGI,SF-268 CNS,> 100 µM
same,TGI,RXF 393 renal,> 100 µM
C=C(Br)CN(C)CC(=C)Br,TGI,PC-3 prostate,> 100 µM
same,TGI,NCI-H522 lung,> 100 µM
same,TGI,SF-295 CNS,> 100 µM
same,TGI,MCF7 breast,> 100 µM
same,TGI,TK-10 renal,> 100 µM
same,TGI,U251 CNS,> 100 µM
same,TGI,KM12 colon,> 100 µM
same,TGI,SK-MEL-28 melanoma,> 100 µM
same,TGI,SR leukemia,> 100 µM
same,TGI,NCI/ADR-RES ovarian,> 100 µM
same,TGI,M14 melanoma,> 100 µM
same,TGI,SNB-75 CNS,> 100 µM
same,TGI,MOLT-4 leukemia,> 100 µM
same,TGI,HOP-92 NSCLC,> 100 µM
same,TGI,OVCAR-5 ovarian,> 100 µM
same,TGI,OVCAR-4 ovarian,> 100 µM
same,TGI,A549 NSCLC,> 100 µM
same,TGI,SN12C renal,> 100 µM
same,TGI,BT-549 breast,> 100 µM
same,TGI,MDA-N,> 100 µM
same,TGI,MALME-3M melanoma,> 100 µM
same,TGI,UACC-257 melanoma,> 100 µM
same,TGI,T-47D breast,> 100 µM
same,TGI,HCT-116 colon,> 100 µM
same,TGI,SK-OV-3 ovarian,> 100 µM
same,TGI,MDA-MB-435,> 100 µM
same,TGI,COLO 205 colon,> 100 µM
same,TGI,SK-MEL-5 melanoma,> 100 µM
same,TGI,UACC-62 melanoma,> 100 µM
same,TGI,SK-MEL-2 melanoma,> 100 µM
same,TGI,CAKI-1 renal,> 100 µM
same,TGI,ACHN renal,> 100 µM
same,TGI,DU-145 prostate,> 100 µM
same,TGI,OVCAR-3 ovarian,> 100 µM
same,TGI,NCI-H460 lung,> 100 µM
same,TGI,MDA-MB-231 breast,> 100 µM
same,TGI,UO-31 renal,> 100 µM
same,TGI,HS 578T breast,> 100 µM
same,TGI,CCRF-CEM leukemia,> 100 µM
same,TGI,LOX IMVI melanoma,> 100 µM
same,TGI,SW-620 colon,> 100 µM
same,TGI,RPMI-8226 leukemia,> 100 µM
same,TGI,HL-60(TB) leukemia,> 100 µM
same,TGI,K-562 leukemia,> 100 µM
same,TGI,HCT-15 colon,> 100 µM
same,TGI,HT29 colon,> 100 µM
same,TGI,NCI-H23 lung,> 100 µM
same,TGI,IGROV1 ovarian,> 100 µM
same,TGI,786-0 renal,> 100 µM
same,TGI,SNB-19 CNS,> 100 µM
same,TGI,HOP-62 NSCLC,> 100 µM
same,TGI,OVCAR-8 ovarian,> 100 µM
same,TGI,EKVX NSCLC,> 100 µM
same,TGI,SF-268 CNS,> 100 µM
same,TGI,RXF 393 renal,> 100 µM
same,TGI,A498 renal,> 100 µM
CC(=O)Oc1ccc2c(c1OC(C)=O)CCC1C2=CC[C@]2(C)C(=O)CCC12 (stereo partly drawn),TGI,PC-3 prostate,17.3 µM
same,TGI,NCI-H522 lung,5.01 µM
same,TGI,SF-295 CNS,29.7 µM
same,TGI,MCF7 breast,31.2 µM
same,TGI,TK-10 renal,27.7 µM
same,TGI,KM12 colon,33.3 µM
same,TGI,SK-MEL-28 melanoma,21.3 µM
same,TGI,SR leukemia,32.9 µM
same,TGI,NCI/ADR-RES ovarian,> 100 µM
same,TGI,M14 melanoma,26.1 µM
same,TGI,MOLT-4 leukemia,19.4 µM
same,TGI,HOP-92 NSCLC,22.4 µM
same,TGI,OVCAR-5 ovarian,30.3 µM
same,TGI,OVCAR-4 ovarian,15.9 µM
same,TGI,A549 NSCLC,33.7 µM
same,TGI,SN12C renal,28.1 µM
same,TGI,BT-549 breast,30.7 µM
same,TGI,MDA-N,33.4 µM
same,TGI,MALME-3M melanoma,28.6 µM
same,TGI,UACC-257 melanoma,68.8 µM
same,TGI,T-47D breast,37.6 µM
same,TGI,HCT-116 colon,18.5 µM
same,TGI,SK-OV-3 ovarian,87.4 µM
same,TGI,MDA-MB-435,18.2 µM
same,TGI,COLO 205 colon,27.7 µM
same,TGI,SK-MEL-5 melanoma,1.55 µM
same,TGI,UACC-62 melanoma,25.5 µM
same,TGI,SK-MEL-2 melanoma,29.5 µM
same,TGI,CAKI-1 renal,19 µM
same,TGI,ACHN renal,24.3 µM
same,TGI,DU-145 prostate,30.1 µM
same,TGI,OVCAR-3 ovarian,6.2 µM
same,TGI,NCI-H460 lung,40.3 µM
same,TGI,MDA-MB-231 breast,28.3 µM
same,TGI,UO-31 renal,21.7 µM
same,TGI,HS 578T breast,62.5 µM
same,TGI,CCRF-CEM leukemia,12.9 µM
same,TGI,SW-620 colon,14.5 µM
same,TGI,RPMI-8226 leukemia,8.41 µM
same,TGI,SF-539 CNS,29.1 µM
same,TGI,HL-60(TB) leukemia,27.5 µM
same,TGI,K-562 leukemia,39.5 µM
same,TGI,HCT-15 colon,23.5 µM
same,TGI,HT29 colon,32.9 µM
same,TGI,NCI-H23 lung,46.9 µM
same,TGI,IGROV1 ovarian,18.8 µM
same,TGI,SNB-19 CNS,32.8 µM
same,TGI,HOP-62 NSCLC,53.7 µM
same,TGI,OVCAR-8 ovarian,27.7 µM
same,TGI,EKVX NSCLC,30.1 µM
same,TGI,SF-268 CNS,27.9 µM
